Structures are written as SMILES.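 Test compounds were applied to cells in 96-well plates for 48 hours at 5 doses. The concentration for full growth arrest is given as TGI.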

Some test systems named below: MALME-3M melanoma; NCI-H226 lung; SF-295 CNS; SF-539 CNS; HT29 colon; RPMI-8226 leukemia; OVCAR-3 ovarian; M14 melanoma; MDA-MB-231 breast.
Test in all cases: growth of human tumour cells (NCI), 48 h

Take `Nc1cc(O)c2cc(N=Nc3ccc(N=Nc4ccc(N=Nc5ccc6cc(S(=O)(=O)O)cc(S(=O)(=O)O)c6c5)c5ccccc45)c4cc(S(=O)(=O)O)ccc34)c(S(=O)(=O)O)cc2c1`: the TGI with MALME-3M melanoma was more than 100 µM; in the assay with NCI-H226 lung, more than 93.3 µM; in the assay on SF-295 CNS it was more than 100 µM; in the assay on SF-539 CNS it was more than 100 µM; with HT29 colon, more than 100 µM; in the assay on RPMI-8226 leukemia it was more than 100 µM. The compound further displayed a TGI in the assay with OVCAR-3 ovarian of more than 100 µM.
For the compound `NS(=O)(=O)c1cc2c(cc1Cl)NC(C(=O)NNC(=O)c1ccncc1)=NS2(=O)=O`, the TGI with MALME-3M melanoma, in the assay with M14 melanoma, in the assay with NCI-H226 lung, in the assay on SF-295 CNS, in the assay with SF-539 CNS and with HT29 colon was more than 100 µM in each case. This compound returned a TGI with OVCAR-3 ovarian of more than 100 µM.
`CC(=O)Oc1cc(OC(C)=O)c2c(c1C)CC[C@@H]1[C@@H]2CC[C@]2(C)[C@@H](OC(C)=O)CC[C@@H]12`: the TGI in the assay on MALME-3M melanoma turned out to be 29.2 µM; in the assay on MDA-MB-231 breast it was 30.5 µM; with M14 melanoma it was 34.9 µM; in the assay with NCI-H226 lung, 34.2 µM; in the assay on SF-295 CNS, 38 µM; in the assay with SF-539 CNS, 30.4 µM. The TGI amounted to 29.8 µM in the assay on HT29 colon, 31.3 µM in the assay on RPMI-8226 leukemia and 31.7 µM with OVCAR-3 ovarian.
Consider `CCOC(=O)N/N=C(/N)Cc1ccc(Cl)cc1`, for which the TGI with MDA-MB-231 breast, in the assay with M14 melanoma, with SF-295 CNS, in the assay on SF-539 CNS, with HT29 colon and in the assay on RPMI-8226 leukemia was more than 100 µM in each case. This compound registered a TGI with OVCAR-3 ovarian of more than 100 µM.
On to `NS(=O)(=O)C1CCCCC1C(=O)NNC(=O)C(=O)Nc1nc(=S)[nH][nH]1` (configuration not stated), for which the TGI with M14 melanoma, in the assay on NCI-H226 lung, in the assay with SF-295 CNS, in the assay with SF-539 CNS, in the assay on HT29 colon and with RPMI-8226 leukemia was more than 100 µM each time.
On to `CCCCCCCCCCCC1=C(O)C(=O)C=C(O)C1=O`, for which the TGI with MALME-3M melanoma was 16.5 µM; in the assay on NCI-H226 lung it was 15.4 µM; in the assay on SF-295 CNS it was 17.4 µM; with SF-539 CNS, 23.3 µM; in the assay with HT29 colon it was 50.2 µM; in the assay with RPMI-8226 leukemia it was 19.3 µM. Also, the TGI with OVCAR-3 ovarian worked out at 14.4 µM.
Turning to `Cn1c(=O)c(C#N)c(O)c2cc3ccccc3nc21`, the TGI in the assay on MALME-3M melanoma, with M14 melanoma, in the assay with NCI-H226 lung, in the assay on SF-295 CNS, in the assay with SF-539 CNS and with RPMI-8226 leukemia was more than 100 µM throughout.
As for `Cc1c(N(Cc2ccccc2)Cc2ccccc2)nc(S(C)(=O)=O)nc1S(C)(=O)=O`, the TGI was 17.6 µM in the assay with MALME-3M melanoma; 4.3 µM in the assay on M14 melanoma; 25.8 µM with NCI-H226 lung; 31.5 µM in the assay with SF-295 CNS; 25.7 µM with SF-539 CNS; 3.67 µM in the assay with HT29 colon. Also, the figures for the TGI with RPMI-8226 leukemia and in the assay on OVCAR-3 ovarian were 7.61 µM and 3.36 µM, respectively.
As to `COc1ccc(-c2cc(=O)c3cc(OC)c(OC)cc3[nH]2)cc1OC`, the TGI in the assay on MALME-3M melanoma, in the assay on MDA-MB-231 breast, in the assay with M14 melanoma, in the assay on NCI-H226 lung, with SF-295 CNS and in the assay on SF-539 CNS was more than 100 µM throughout. Further, the TGI in the assay on HT29 colon, in the assay with RPMI-8226 leukemia and in the assay on OVCAR-3 ovarian was more than 100 µM in each case.
Take `O=C(c1ccccc1)n1c2ccc(Br)cc2c2nc3ccccc3nc21`: the TGI with MALME-3M melanoma, in the assay on MDA-MB-231 breast, in the assay on M14 melanoma, in the assay on NCI-H226 lung, in the assay on SF-295 CNS and in the assay with SF-539 CNS was more than 100 µM throughout. Further, the TGI in the assay on HT29 colon, in the assay with RPMI-8226 leukemia and in the assay on OVCAR-3 ovarian was more than 100 µM in each case.
For `O=[N+]([O-])c1cccc2c1[nH]c1c(-c3ccccc3)nccc12`, the TGI in the assay with MALME-3M melanoma was 6.43 µM; in the assay on NCI-H226 lung, 5.33 µM; in the assay on SF-295 CNS it was 12.1 µM; in the assay with SF-539 CNS, more than 69 µM; with HT29 colon, 10.4 µM; in the assay with RPMI-8226 leukemia it was more than 100 µM. In the assay with OVCAR-3 ovarian, this compound showed a TGI of 4.45 µM.
Regarding `Cc1ccc(C)c(C(=O)CC2OC(O)C(Cl)C2Cl)c1` (configuration not stated), the TGI with MALME-3M melanoma was more than 100 µM; with M14 melanoma, more than 100 µM; in the assay with NCI-H226 lung it was more than 100 µM; with SF-295 CNS, more than 100 µM; in the assay with SF-539 CNS it was 53.2 µM; in the assay with HT29 colon, more than 100 µM. The TGI in the assay on RPMI-8226 leukemia and with OVCAR-3 ovarian was more than 100 µM in each case.
For the compound `COc1ccc(Sc2ccccc2[N+](=O)[O-])cc1`, the TGI is more than 100 µM in the assay with MALME-3M melanoma; more than 100 µM in the assay on M14 melanoma; 45.8 µM with NCI-H226 lung; more than 100 µM in the assay with SF-539 CNS; 59.9 µM with HT29 colon; more than 100 µM in the assay on RPMI-8226 leukemia. In the assay on OVCAR-3 ovarian, this compound displayed a TGI of 58.9 µM.
